Test results taken from US10239881B2, “RIPK2 inhibitors and method of treating cancer with same” (University Health Network, priority 2014, dated 2019).
pIC50: −log10 of the molar value.

Legend:
human RIPK2 kinase = human RIPK2 kinase (Homo sapiens (Human), UniProt O43353); assay: RIPK2 inhibition assay (indirect ELISA); format: biochemical; conditions: His-RIPK2 0.6 nM, 6 μM ATP; read-out: RIPK2 IC50 range
Protocol: Active RIPK2 was purchased from Life Technologies as His-tagged of catalityc domain (amin acids 1-299) of human RIPK2 kinase expressed in insect cells. Amino terminal 6 histidine, sumo tagged human TTK (residues 1-275) was expressed in E. coli, and purified to >95% homogeneity by Ni^2+ agarose, gel filtration, and ion exchange chromatography.
RIPK2 activity was measured using an indirect ELISA detection system. His—RIPK2 (0.6 nM) was incubated in the presence of 6 μM ATP (Sigma cat # A7699), 20 mM Hepes, pH 7.5, 1 mM EGTA, 2.5 mM MgCl2, 2.5 mM MnCl2 and 0.01% Triton X-100 in a 96 well microtitre plate pre-coated with amino terminal 6 histidine, sumo tagged TTK (amino acid residues 1-275). The reaction was allowed to proceed for 30 minutes, followed by 5 washes of the plate with Wash Buffer (phosphate buffered saline supplemented with 0.2% Tween 20), and incubation for 30 minutes with a 1:3000 dilution of primary antibody (Cell Signaling cat #9381). The plate was washed 5 times with Wash Buffer, incubated for 30 minutes in the presence of secondary antibody coupled to horse radish peroxidase (BioRad cat #1721019, 1:3000 concentration), washed an additional 5 times with Wash Buffer, and incubated in the presence of TMB substrate (Sigma cat # T0440). The colorimetric reaction was allowed to continue for 5 minutes, followed by addition of stop solution (0.5 N H2SO4), and quantified by detection at 450 nm with either a monoChromatic or filter based plate reader (Molecular Devices M5 or Beckman DTX880, respectively).
Compound inhibition was determined at either a fixed concentration (10 μM) or at a variable inhibitor concentration (typically 50 μM to 0.1 μM in a 10 point dose response titration). Compounds were pre-incubated in the presence of enzyme for 15 minutes prior to addition of ATP and the activity remaining quantified using the above described activity assay. The % Inhibition of a compound was determined using the following formula; % Inhibition=100×(1−(experimental value−background value)/(high activity control−background value)). The IC50 value was determined using a non-linear 4 point logistic curve fit (XLfit4, IDBS) with the formula; (A+(B/(1+((x/C)^D)))), where A=background value, B=range, C=inflection point, D=curve fit parameter.

[1] = test system: HCT116 colon cancer cells; assay: Sulforhodamine B cell growth inhibition assay; format: cell-based; conditions: Homo sapiens, HCT-116, 120 h; 5 days, SRB; read-out: Colon GI50 range HCT116
Protocol: (§1) Breast cancer cells (MDA-MB-231 and MDA-MB-468), colon cancer cells (HCT116 and HT-29) and ovarian cancer cells (SKOV-3 and OVCAR-3) were seeded (1000 to 4000 in 80 μL per well depending on the cell growth rate) into 96 well plates 24 hours before compound overlay. Compounds were prepared as 10 mM stock solutions in 100% DMSO which were diluted with DMEM (Dulbecco's Modified Eagle's Medium) cell growth Medium (Invitrogen, Burlington, ON, Canada) containing 10% FBS (Fetal Bovine Serum) to concentrations ranging from 50 nM to 250 μM. Aliquots (20 μL) from each concentration were overlaid to 80 μL of the pre-seeded cells in the 96 well plates to make final concentrations of 10 nM to 50 μM. The cells were cultured for 5 days before the Sulforhodamine B assay (SRB) was performed to determine the compound's cell growth inhibition activity.
(§2) The cells are fixed in situ by gently aspirating off the culture media and adding 50 μL ice cold 10% trichloroacetic acid per well and incubate at 4° C. for 30-60 min. The plates are washed with H2O five times and allowed to air dry for 5 min. Addition of 50 μL 0.4% (w/v) SRB solution in 1% (v/v) acetic acid to each well and incubation for 30 min at rt completes the staining reaction. Following staining, plates are washed four times with 1% acetic acid to remove unbound dye and then allowed to air dry for 5 min. The stain is solubilized with 100 μL of 10 mM Tris pH 10.5 per well. Absorbance is read at 570 nm. The percentage (%) of relative growth inhibition was calculated by comparing to DMSO treated only cells (100%). GI50's were determined for compounds with cytotoxic activity. The GI50 was calculated using GraphPad PRISM software (GraphPad Software, Inc., San Diego, Calif., USA). GI50 (growth inhibition) is the compound concentration that causes 50% inhibition of cell growth.
(§3) In Table 2 lists GI50 value ranges for compound examples against breast cancer cell lines (MDA-MB-231, MDA-MB-468), colon cancer cell lines (HCT116, HT-29) and ovarian cancer cell lines (OVCAR-3, SKOV-3) are given. […] The GI50 ranges are indicated as “A,” “B,” and “C,” for values less than or equal to 1 μM; those greater than 1 μM and less than or equal to 10 μM; and those greater than 10 μM, respectively.

HT-29 colon cancer cells = assay: Sulforhodamine B cell growth inhibition assay; format: cell-based; conditions: Homo sapiens, HT-29, 120 h; 5 days, SRB; read-out: Colon GI50 range HT29
Protocol: as §1, §2, §3

[2] = test system: MDA-MB-231 breast cancer cells; assay: Sulforhodamine B cell growth inhibition assay; format: cell-based; conditions: Homo sapiens, MDA-MB-231, 120 h; 5 days, SRB; read-out: Breast GI50 range MDA-MB-231
Protocol: as §1, §2, §3

[3] = test system: OVCAR-3 ovarian cancer cells; assay: Sulforhodamine B cell growth inhibition assay; format: cell-based; conditions: Homo sapiens, OVCAR-3, 120 h; 5 days, SRB; read-out: Ovarian GI50 range OVCAR-3
Protocol: as §1, §2, §3

[4] = test system: SKOV-3 ovarian cancer cells; assay: Sulforhodamine B cell growth inhibition assay; format: cell-based; conditions: Homo sapiens, SK-OV-3, 120 h; 5 days, SRB; read-out: Ovarian GI50 range SKOV-3
Protocol: as §1, §2, §3

[5] = test system: MDA-MB-468 breast cancer cells; assay: Sulforhodamine B cell growth inhibition assay; format: cell-based; conditions: Homo sapiens, MDA-MB-468, 120 h; 5 days, SRB; read-out: Breast GI50 range MDA-MB-468
Protocol: as §1, §2, §3

Chain of human RIPK2 kinase (O43353 1-299): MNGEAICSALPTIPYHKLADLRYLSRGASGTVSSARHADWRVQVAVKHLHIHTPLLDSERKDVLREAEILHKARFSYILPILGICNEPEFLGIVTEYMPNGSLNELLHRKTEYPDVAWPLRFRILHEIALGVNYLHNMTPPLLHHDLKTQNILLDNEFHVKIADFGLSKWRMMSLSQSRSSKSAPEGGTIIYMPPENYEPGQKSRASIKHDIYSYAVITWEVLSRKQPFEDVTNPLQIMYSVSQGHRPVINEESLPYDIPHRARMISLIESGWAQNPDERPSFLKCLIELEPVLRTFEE

c1cc(Nc2ncc3[nH]c(C4CCOCC4)cc3n2)cc(N2CCOCC2)c1 [Example A14, N-(3-morpholino-phenyl)-6-(tetrahydro-2H-pyran-4-yl)-5H-pyrrolo[3,2-d] pyrimidin-2-amine] showed a pIC50 (human RIPK2 kinase) of less than 6.30.
In the case of Cc1ccccc1-c1cc2nc(Nc3ccc(CN4CCN(C)CC4)cc3)ncc2[nH]1 [Example A18, N-(4-((4-methylpiperazin-1-yl)methyl)phenyl)-6-(o-tolyl)-5H-pyrrolo[3,2-d] pyrimidin-2-amine], the pIC50 (human RIPK2 kinase) was no less than 7.00.
Clc1ccccc1-c1cc2nc(Nc3cccc(N4CCOCC4)c3)ncc2[nH]1 [Example A20, 6-(2-chloro-phenyl)-N-(3-morpholino-phenyl)-5H-pyrrolo[3,2-d]pyrimidin-2-amine] gave a pIC50 (human RIPK2 kinase) of no less than 7.00.
CN1CCN(c2cccc(Nc3ncc4[nH]c(C5CCCC5)cc4n3)c2)CC1 [Example A10, 6-cyclopentyl-N-(3-(4-methylpiperazin-1-yl)phenyl)-5H-pyrrolo[3,2-d]pyrimidin-2-amine] gave a pIC50 (human RIPK2 kinase) of less than 6.30.
With Cc1ccccc1-c1cc2nc(Nc3cccc(CN4CCOCC4)c3)ncc2[nH]1 [Example A7, N-(3-(morpholino-methyl)phenyl)-6-(o-tolyl)-5H-pyrrolo[3,2-d] pyrimidin-2-amine] the pIC50 (human RIPK2 kinase) was no less than 7.00, the GI50 [1] was 1 to 10 µM and the GI50 (HT-29 colon cancer cells) was 1 to 10 µM. The GI50 [2] was 1 to 10 µM, the GI50 [3] was 1 to 10 µM and the GI50 [4] was 1 to 10 µM.
c1ccc(Nc2ncc3[nH]c(-c4ccccc4)cc3n2)cc1 [Example A1, N,6-diphenyl-5H-pyrrolo[3,2-d]pyrimidin-2-amine] showed a pIC50 (human RIPK2 kinase) of less than 6.30.
In the case of Cc1ccccc1-c1cc2nc(N[C@H]3CC[C@@H](O)CC3)ncc2[nH]1 [Example A22, (1s,4s)-4-((6-(o-tolyl)-5H-pyrrolo[3,2-d]pyrimidin-2-yl)amino) cyclohexanol], the pIC50 (human RIPK2 kinase) was less than 6.30.
Work on Cc1ccccc1-c1cc2nc(Nc3cccc(N4CCN(C)CC4)c3)ncc2[nH]1 [Example A4, N-(3-(4-methylpiperazin-1-yl)phenyl)-6-(o-tolyl)-5H-pyrrolo[3,2-d]pyrimidin-2-amine] yielded a pIC50 (human RIPK2 kinase) of no less than 7.00, a GI50 [1] of no more than 1 µM and a GI50 (HT-29 colon cancer cells) of no more than 1 µM. The GI50 [2] was no more than 1 µM, the GI50 [5] was no more than 1 µM and the GI50 [3] was no more than 1 µM. The GI50 [4] was 1 to 10 µM.
With Cc1cccc(C)c1-c1cc2nc(Nc3cccc(N4CCN(C)CC4)c3)ncc2[nH]1 [Example A6, 6-(2,6-dimethylphenyl)-N-(3-(4-methylpiperazin-1-yl)phenyl)-5H-pyrrolo[3,2-d]pyrimidin-2-amine] the pIC50 (human RIPK2 kinase) was no less than 7.00, the GI50 [1] was 1 to 10 µM and the GI50 (HT-29 colon cancer cells) was no more than 1 µM. The GI50 [2] was 1 to 10 µM, the GI50 [3] was no more than 1 µM and the GI50 [4] was no more than 1 µM.
With Cc1ccccc1-c1cc2nc(Nc3ccc(N4CCOCC4)cc3)ncc2[nH]1 [Example A8, N-(4-morpholino-phenyl)-6-(o-tolyl)-5H-pyrrolo[3,2-d]pyrimidin-2-amine] the pIC50 (human RIPK2 kinase) was no less than 7.00, the GI50 [1] was greater than 10 µM and the GI50 (HT-29 colon cancer cells) was greater than 10 µM. The GI50 [2] was greater than 10 µM, the GI50 [3] was greater than 10 µM and the GI50 [4] was greater than 10 µM.
Cc1ccccc1-c1cc2nc(NCC3CCOCC3)ncc2[nH]1 [Example A24, N-((tetrahydro-2H-pyran-4-yl)methyl)-6-(o-tolyl)-5H-pyrrolo[3,2-d]pyrimidin-2-amine] gave a pIC50 (human RIPK2 kinase) of 6.30 to 7.00.
In the case of Cc1ccccc1-c1cc2nc(Nc3cccc(CN4CCN(C)CC4)c3)ncc2[nH]1 [Example A9, N-(3-((4-methylpiperazin-1-yl)methyl)phenyl)-6-(o-tolyl)-5H-pyrrolo[3,2-d] pyrimidin-2-amine], the pIC50 (human RIPK2 kinase) was no less than 7.00, the GI50 [1] was 1 to 10 µM and the GI50 (HT-29 colon cancer cells) was no more than 1 µM. For the same compound, the GI50 [2] was greater than 10 µM, the GI50 [3] was no more than 1 µM and the GI50 [4] was no more than 1 µM.
Cc1nc(Nc2ncc3[nH]c(-c4ccccc4C)cc3n2)cc(N2CCN(CCO)CC2)n1 [Example A5, 2-(4-(2-methyl-6-((6-(o-tolyl)-5H-pyrrolo[3,2-d]pyrimidin-2-yl)amino)pyrimidin-4-yl)piperazin-1-yl)ethanol] was tested, and the pIC50 (human RIPK2 kinase) was less than 6.30.
Work on CN1CCN(c2cccc(Nc3ncc4[nH]c(-c5ccsc5)cc4n3)c2)CC1 [Example A11, N-(3-(4-methylpiperazin-1-yl)phenyl)-6-(thiophen-3-yl)-5H-pyrrolo[3,2-d]pyrimidin-2-amine] yielded a pIC50 (human RIPK2 kinase) of no less than 7.00.
With Cc1ccccc1-c1cc2nc(Nc3ccc(N4CCN(C)CC4)cc3)ncc2[nH]1 [Example A17, N-(4-(4-methylpiperazin-1-yl)phenyl)-6-(o-tolyl)-5H-pyrrolo[3,2-d]pyrimidin-2-amine] the pIC50 (human RIPK2 kinase) was no less than 7.00.
For Cc1ccccc1-c1cc2nc(Nc3ccc(CN4CCOCC4)cc3)ncc2[nH]1 [Example A15, N-(4-(morpholino-methyl)phenyl)-6-(o-tolyl)-5H-pyrrolo[3,2-d] pyrimidin-2-amine], the pIC50 (human RIPK2 kinase) was no less than 7.00.
Work on Cc1ccccc1-c1cc2nc(N[C@H]3CC[C@@H](O)CC3)ncc2[nH]1 [Example A21, (1r,4)-4-((6-(o-tolyl)-5H-pyrrolo[3,2-d]pyrimidin-2-yl)amino) cyclohexanol] yielded a pIC50 (human RIPK2 kinase) of 6.30 to 7.00.
With Cc1ccccc1-c1cc2nc(NCC3(N4CCOCC4)CCCC3)ncc2[nH]1 [Example A26, N-((1-morpholino-cyclopentyl)methyl)-6-(o-tolyl)-5H-pyrrolo[3,2-d]pyrimidin-2-amine] the pIC50 (human RIPK2 kinase) was less than 6.30.
In the case of COc1ccccc1-c1cc2nc(Nc3cccc(N4CCOCC4)c3)ncc2[nH]1 [Example A25, 6-(2-methoxy-phenyl)-N-(3-morpholino-phenyl)-5H-pyrrolo[3,2-d] pyrimidin-2-amine], the pIC50 (human RIPK2 kinase) was 6.30 to 7.00.
For Cc1ccccc1-c1cc2nc(NC3CCOCC3)ncc2[nH]1 [Example A23, N-(tetrahydro-2H-pyran-4-yl)-6-(o-tolyl)-5H-pyrrolo[3,2-d]pyrimidin-2-amine], the pIC50 (human RIPK2 kinase) was less than 6.30.
OCCN1CCN(c2cccc(Nc3ncc4[nH]c(-c5ccccc5Cl)cc4n3)c2)CC1 [Example A16, 2-(4-(3-((6-(2-chlorophenyl)-5H-pyrrolo[3,2-d]pyrimidin-2-yl)amino)phenyl)piperazin-1-yl) ethanol] gave a pIC50 (human RIPK2 kinase) of no less than 7.00.
In the case of Cc1ccccc1-c1cc2nc(NCCCN3CCOCC3)ncc2[nH]1 [Example A19, N-(3-morpholinopropyl)-6-(o-tolyl)-5H-pyrrolo[3,2-d]pyrimidin-2-amine], the pIC50 (human RIPK2 kinase) was less than 6.30.
